{"source": "patent US9610463B2", "about": "“Cosmetic or dermatological preparation comprising collagen, chitosan, glycosylaminoglycan and cell growth promoting peptide and/or cellular complex” (BEIERSDORF AG, priority 2009, dated 2017)", "format_in_all_cases": "cell-based", "key": {"[1]": {"tested_on": "NIH3T3 fibroblast cell line", "experiment": "ECM expression (ELISA): procollagen expression by fibroblast cells", "settings": "control = 100", "procedure": "(§1) The effect of the addition of MPC and MPC+IDP4 on the extracellular matrix expression of procollagen, fibronectin, elastin, hyaluronic acid and laminine by the following cells was investigated: • 1. HacaT keratinocyte cell line (hyaluronic acid, laminine) • 2. NIH3T3 fibroblast cell line (procollagen, fibronectin, elastin).\n(§2) Method: • (1) Cell seeding • (2) Starvation for 24 h with serum-free DMEM media • (3) Sample treatment • (4) Cultivation for 72 h • (5) Cell supernatant collection • (6) Assay\n(§3) Assay (ELISA): • (a) Coating with capture antibody • (b) Blocking (blocking solution) • (c) Aspiration and washing each well five times • (d) Addition of sample and standard to each well • (e) Aspiration and washing each well five times • (f) Addition of conjugate to each well • (g) Aspiration and washing each well five times • (h) Addition of substrate solution to each well • (i) Addition of stop solution to each well • (j) Reading of optical density at 450 nm\n(§4) The effect of the addition of GPVE and GPVE+IDP4 on the extracellular matrix expression of procollagen, fibronectin, elastin, hyaluronic acid and laminine by the following cells was investigated: • 1. HacaT keratinocyte cell line (hyaluronic acid, laminine) • 2. NIH3T3 fibroblast cell line (procollagen, fibronectin, elastin).\n(§5) The effect of GPVE/MPC and GPVE/MPC+IDP4 on the extracellular matrix expression of procollagen, fibronectin, elastin, hyaluronic acid and laminine by the following cells was investigated: • 1. HacaT keratinocyte cell line (hyaluronic acid, laminine) • 2. NIH3T3 fibroblast cell line (procollagen, fibronectin, elastin)."}, "[2]": {"tested_on": "HacaT keratinocyte cell line", "experiment": "Cell growth assay, HacaT keratinocyte cell line", "procedure": "(§6) The effect of the addition of MPC vs. (MPC+IDP4), GPVE vs. (GPVE+IDP4), and GPVE/MPC vs. (GPVE/MPC=IDP4) on the growth of the following cells was investigated: • 1. HacaT keratinocyte cell line • 2. NIH3T3 fibroblast cell line • 3. MSC (mesenchymal stem cells).\n(§7) Method: • (1) Cell seeding • (2) Starvation for 24 h with serum-free DMEM media • (3) Sample treatment • (4) Cultivation for 72 h • (5) Cell harvesting • (6) Cell growth assay"}, "[3]": {"tested_on": "mesenchymal stem cells", "experiment": "Protective effect against H2O2 (anti-apoptosis effect)", "settings": "W/O H2O2; With H2O2 0% MPC = 100", "procedure": "The protective (anti-apoptosis) effect of the addition of MPC and MPC+IDP4 on mesenchymal stem cells against H2O2 (free radical former) was tested.\nMethod: • (1) Cell seeding • (2) Starvation for 24 h with serum-free DMEM media • (3) Sample treatment • (4) Cultivation for 24 h • (5) Treatment with 5 mM H2O2 • (6) Incubation for 24 h • (7) Cell growth assay"}, "[4]": {"tested_on": "HacaT keratinocyte cell line", "experiment": "ECM expression (ELISA): laminine expression by keratinocyte cells", "settings": "control = 100", "procedure": "as §1, §2, §3, §4, §5"}, "[5]": {"tested_on": "HacaT keratinocyte cell line", "experiment": "ECM expression (ELISA): hyaluronic acid expression by keratinocyte cells", "settings": "control = 100", "procedure": "Method: • (1) Cell seeding • (2) Starvation for 24 h with serum-free DMEM media • (3) Sample treatment • (4) Cultivation for 72 h • (5) Cell supernatant collection • (6) Assay […]"}, "[6]": {"tested_on": "MSC (mesenchymal stem cells)", "experiment": "Cell growth assay, mesenchymal stem cells", "procedure": "as §6, §7"}, "[7]": {"tested_on": "NIH3T3 fibroblast cell line", "experiment": "ECM expression (ELISA): elastin expression by fibroblast cells", "settings": "control = 100", "procedure": "as §1, §2, §3, §4, §5"}, "[8]": {"tested_on": "NIH3T3 fibroblast cell line", "experiment": "ECM expression (ELISA): fibronectin expression by fibroblast cells", "settings": "control = 100", "procedure": "as §1, §2, §3, §4, §5"}, "[9]": {"tested_on": "NIH3T3 fibroblast cell line", "experiment": "Cell growth assay, NIH3T3 fibroblast cell line", "procedure": "as §6, §7"}, "[10]": {"settings": "alone at the concentration employed (1 μg)"}}, "note": "“And” between values parts separate entries of the source, which are not always exact repeats. Equal entries are not always repeated.", "data": [{"substance": "oligopeptide-21 [IDP4]", "values": [{"measurement": "procollagen %", "setting": "[1]; 10 ng/ml", "result": 175, "unit": "%"}, {"measurement": "procollagen %", "setting": "[1]; 100 ng/ml", "result": 226, "unit": "%"}, {"measurement": "procollagen %", "setting": "[1]; 1 μg/ml", "result": 302, "unit": "%"}, {"measurement": "procollagen %", "setting": "[1]; 10 μg/ml", "result": 333, "unit": "%"}, {"measurement": "growth, Haca T (%)", "setting": "[2]; 10 μg/ml, control = 100", "result": 148, "unit": "%"}, {"measurement": "significance of increase in growth, keratinocyte cell line", "setting": "[2]; [10]", "result": "did not afford any statistically significant increase in growth"}, {"measurement": "cell growth, MSC", "setting": "[3]", "result": 175}, {"measurement": "laminine %", "setting": "[4]; 10 ng/ml", "result": 115, "unit": "%"}, {"measurement": "laminine %", "setting": "[4]; 100 ng/ml", "result": 135, "unit": "%"}, {"measurement": "laminine %", "setting": "[4]; 1 μg/ml", "result": 175, "unit": "%"}, {"measurement": "laminine %", "setting": "[4]; 10 μg/ml", "result": 177.5, "unit": "%"}, {"measurement": "hyaluronic acid %", "setting": "[5]; 10 ng/ml", "result": 110, "unit": "%"}, {"measurement": "hyaluronic acid %", "setting": "[5]; 100 ng/ml", "result": 137.5, "unit": "%"}, {"measurement": "hyaluronic acid %", "setting": "[5]; 1 μg/ml", "result": 150, "unit": "%"}, {"measurement": "hyaluronic acid %", "setting": "[5]; 10 μg/ml", "result": 160, "unit": "%"}, {"measurement": "growth, MSC (%)", "setting": "[6]; 10 μg/ml, control = 100", "result": 145, "unit": "%"}, {"measurement": "significance of increase in growth, mesenchymal stem cells", "setting": "[6]; [10]", "result": "did not afford any statistically significant increase in growth"}, {"measurement": "elastin %", "setting": "[7]; 10 ng/ml", "result": 131, "unit": "%"}, {"measurement": "elastin %", "setting": "[7]; 100 ng/ml", "result": 127, "unit": "%"}, {"measurement": "elastin %", "setting": "[7]; 1 μg/ml", "result": 137, "unit": "%"}, {"measurement": "elastin %", "setting": "[7]; 10 μg/ml", "result": "131% and 137%"}, {"measurement": "fibronectin %", "setting": "[8]; 10 ng/ml", "result": 101, "unit": "%"}, {"measurement": "fibronectin %", "setting": "[8]; 100 ng/ml", "result": 105, "unit": "%"}, {"measurement": "fibronectin %", "setting": "[8]; 1 μg/ml", "result": 116, "unit": "%"}, {"measurement": "fibronectin %", "setting": "[8]; 10 μg/ml", "result": 158, "unit": "%"}, {"measurement": "growth, NIH3T3 (%)", "setting": "[9]; 10 μg/ml, control = 100", "result": 260, "unit": "%"}, {"measurement": "significance of increase in growth, fibroblast cell line", "setting": "[9]; [10]", "result": "did not afford any statistically significant increase in growth"}]}]}
